Experimental data taken from PMC5218480 (PLoS ONE, 2017).

Test system: MV-4-11 cells
Test: Gene expression microarray analysis (Affymetrix PrimeView) and GSEA
Format: cell-based, human
Set-up: RFU PODN (11730768_x_at) / Fold change /veh PODN (11730768_x_at) / RFU LINC00158 (11744669_a_at) / Fold change /veh LINC00158 (11744669_a_at) / RFU DUSP10 (11751237_a_at) / Fold change /veh DUSP10 (11751237_a_at) / RFU ID3 (11757404_x_at) / Fold change /veh ID3 (11757404_x_at) / RFU PLEKHG5 (11737974_s_at) / Fold change /veh PLEKHG5 (11737974_s_at) / RFU LRRC4B (11730491_at) / Fold change /veh LRRC4B (11730491_at) / RFU GIMAP4 (11747438_a_at) / Fold change /veh GIMAP4 (11747438_a_at) / RFU KRT8 (11758183_x_at) / Fold change /veh KRT8 (11758183_x_at) / RFU CNN1 (11734310_a_at) / Fold change /veh CNN1 (11734310_a_at) / RFU VPS37D (11726825_at) / Fold change /veh VPS37D (11726825_at) / RFU C10orf10 (11716522_x_at) / Fold change /veh C10orf10 (11716522_x_at) / RFU KIR2DL2 /// KIR2DL4 /// KIR2DL5A /// KIR2DL5B /// KIR2DS1 /// KIR2DS2 /// KIR2DS3 /// KIR2DS4 /// KIR3DL3 /// KIR3DL3 /// KIR3DS1 (11738374_at) / Fold change /veh KIR2DL2 /// KIR2DL4 /// KIR2DL5A /// KIR2DL5B /// KIR2DS1 /// KIR2DS2 /// KIR2DS3 /// KIR2DS4 /// KIR3DL3 /// KIR3DL3 /// KIR3DS1 (11738374_at) / RFU C1QL1 (11718748_at) / Fold change /veh C1QL1 (11718748_at) / RFU TMPRSS4 (11747572_a_at) / Fold change /veh TMPRSS4 (11747572_a_at) / RFU HAMP (11756126_x_at) / Fold change /veh HAMP (11756126_x_at) / RFU RNFT2 (11725882_a_at) / Fold change /veh RNFT2 (11725882_a_at) / RFU NR4A2 (11747474_a_at) / Fold change /veh NR4A2 (11747474_a_at) / RFU ABCC12 (11746883_a_at) / Fold change /veh ABCC12 (11746883_a_at) / RFU TMEM136 (11760407_x_at) / Fold change /veh TMEM136 (11760407_x_at) / RFU CLDN22 /// WWC2 (11732394_at) / Fold change /veh CLDN22 /// WWC2 (11732394_at) / RFU HLA-DPB1 (11760878_x_at) / Fold change /veh HLA-DPB1 (11760878_x_at) / RFU SPINT1 (11716480_a_at) / Fold change /veh SPINT1 (11716480_a_at) / RFU GAP43 (11754022_s_at) / Fold change /veh GAP43 (11754022_s_at) / RFU A4GNT (11735810_at) / Fold change /veh A4GNT (11735810_at) / RFU PRB3 (11715151_x_at) / Fold change /veh PRB3 (11715151_x_at) / RFU TUBB4B (11761932_at) / Fold change /veh TUBB4B (11761932_at) / RFU CAPN14 (11732068_a_at) / Fold change /veh CAPN14 (11732068_a_at) / RFU TMCC2 (11721928_a_at) / Fold change /veh TMCC2 (11721928_a_at) / RFU IRGQ (11745062_a_at) / Fold change /veh IRGQ (11745062_a_at) / RFU FAM174B (11720279_a_at) / Fold change /veh FAM174B (11720279_a_at) / RFU TMPRSS4 (11748680_a_at) / Fold change /veh TMPRSS4 (11748680_a_at) / RFU FAM212B (11763350_a_at) / Fold change /veh FAM212B (11763350_a_at) / RFU PLEKHG5 (11743358_a_at) / Fold change /veh PLEKHG5 (11743358_a_at) / RFU ZSCAN30 (11745921_a_at) / Fold change /veh ZSCAN30 (11745921_a_at) / RFU CMKLR1 (11741424_a_at) / Fold change /veh CMKLR1 (11741424_a_at) / RFU LOC101060620 /// MAPK8IP1 (11723275_at) / Fold change /veh LOC101060620 /// MAPK8IP1 (11723275_at) / RFU SPTSSB (11747773_x_at) / Fold change /veh SPTSSB (11747773_x_at) / RFU PRSS12 (11739890_at) / Fold change /veh PRSS12 (11739890_at) / RFU BIN1 (11741810_x_at) / Fold change /veh BIN1 (11741810_x_at) / RFU WNT11 (11732464_a_at) / Fold change /veh WNT11 (11732464_a_at) / RFU C10orf10 (11716521_a_at) / Fold change /veh C10orf10 (11716521_a_at) / RFU C5orf56 (11738089_at) / Fold change /veh C5orf56 (11738089_at) / RFU CYB561 (11721691_x_at) / Fold change /veh CYB561 (11721691_x_at) / RFU ANKRD19P (11752326_a_at) / Fold change /veh ANKRD19P (11752326_a_at) / RFU OR2T12 /// OR2T33 /// OR2T8 (11738714_s_at) / Fold change /veh OR2T12 /// OR2T33 /// OR2T8 (11738714_s_at) / RFU VCAN (11748164_a_at) / Fold change /veh VCAN (11748164_a_at) / RFU JSRP1 (11732532_at) / Fold change /veh JSRP1 (11732532_at) / RFU KRTAP10-11 (11738290_x_at) / Fold change /veh KRTAP10-11 (11738290_x_at) / RFU MYO3A (11730013_a_at) / Fold change /veh MYO3A (11730013_a_at) / RFU EBF3 (11725865_a_at) / Fold change /veh EBF3 (11725865_a_at) / RFU CAMK2N1 (11719241_x_at) / Fold change /veh CAMK2N1 (11719241_x_at) / RFU C5orf56 (11738088_a_at) / Fold change /veh C5orf56 (11738088_a_at) / RFU OLFML3 (11715873_a_at) / Fold change /veh OLFML3 (11715873_a_at) / RFU LOC100653217 /// NTM (11731650_a_at) / Fold change /veh LOC100653217 /// NTM (11731650_a_at) / RFU MAPK11 (11762145_a_at) / Fold change /veh MAPK11 (11762145_a_at) / RFU FIZ1 (11724087_x_at) / Fold change /veh FIZ1 (11724087_x_at) / RFU OASL (11726364_x_at) / Fold change /veh OASL (11726364_x_at) / RFU SOX15 (11748057_x_at) / Fold change /veh SOX15 (11748057_x_at) / RFU CD79A (11719716_a_at) / Fold change /veh CD79A (11719716_a_at) / RFU HIST1H1D (11736915_at) / Fold change /veh HIST1H1D (11736915_at) / RFU CASKIN2 (11723855_a_at) / Fold change /veh CASKIN2 (11723855_a_at) / RFU LOC730098 (11760151_x_at) / Fold change /veh LOC730098 (11760151_x_at) / RFU OR4N2 (11742367_at) / Fold change /veh OR4N2 (11742367_at) / RFU PRRT2 (11749266_a_at) / Fold change /veh PRRT2 (11749266_a_at) / RFU SNX32 (11753110_a_at) / Fold change /veh SNX32 (11753110_a_at) / RFU CDHR5 (11726645_a_at) / Fold change /veh CDHR5 (11726645_a_at) / RFU RCAN1 (11760418_a_at) / Fold change /veh RCAN1 (11760418_a_at) / RFU FAM167A (11723789_a_at) / Fold change /veh FAM167A (11723789_a_at) / RFU FAM26E (11764081_at) / Fold change /veh FAM26E (11764081_at) / RFU ISYNA1 (11749810_s_at) / Fold change /veh ISYNA1 (11749810_s_at) / RFU ACY1 (11761880_at) / Fold change /veh ACY1 (11761880_at) / RFU 11764098_at / Fold change /veh 11764098_at / RFU SAMD14 (11745864_x_at) / Fold change /veh SAMD14 (11745864_x_at) / RFU NPB (11741838_a_at) / Fold change /veh NPB (11741838_a_at) / RFU TMPRSS6 (11731388_a_at) / Fold change /veh TMPRSS6 (11731388_a_at) / RFU KRTAP10-2 (11738614_at) / Fold change /veh KRTAP10-2 (11738614_at) / RFU ARHGAP8 /// PRR5-ARHGAP8 (11727945_x_at) / Fold change /veh ARHGAP8 /// PRR5-ARHGAP8 (11727945_x_at) / RFU KRTAP5-7 /// NADSYN1 (11734609_at) / Fold change /veh KRTAP5-7 /// NADSYN1 (11734609_at) / RFU RASL12 (11751679_a_at) / Fold change /veh RASL12 (11751679_a_at) / RFU CDKN2B (11736163_a_at) / Fold change /veh CDKN2B (11736163_a_at) / RFU PRF1 (11729649_at) / Fold change /veh PRF1 (11729649_at) / RFU, ZNF638 /// ZNF638-IT1 / Fold change vs veh, ZNF638 /// ZNF638-IT1 / RFU, PANK3 / Fold change vs veh, PANK3 / RFU, SH3YL1 / Fold change vs veh, SH3YL1 / RFU, ZEB2 / Fold change vs veh, ZEB2 / RFU, NRIP1 / Fold change vs veh, NRIP1 / RFU, PTTG1IP / Fold change vs veh, PTTG1IP / RFU, CAPN2 / Fold change vs veh, CAPN2 / RFU, MED14 / Fold change vs veh, MED14 / RFU, SNORA58 / Fold change vs veh, SNORA58 / RFU, C1orf63 / Fold change vs veh, C1orf63 / RFU, LRRFIP1 / Fold change vs veh, LRRFIP1 / RFU, NDUFAF7 / Fold change vs veh, NDUFAF7 / RFU, SLC12A2 / Fold change vs veh, SLC12A2 / RFU, IBTK / Fold change vs veh, IBTK / RFU, ESF1 / Fold change vs veh, ESF1 / Fold change vs veh, TMEM50B / RFU, TAOK1 / Fold change vs veh, TAOK1 / RFU, ACBD3 / Fold change vs veh, ACBD3 / RFU, TMA16 / Fold change vs veh, TMA16 / RFU, RWDD3 / Fold change vs veh, RWDD3 / RFU, BCAT1 / Fold change vs veh, BCAT1 / RFU, EDEM3 / Fold change vs veh, EDEM3 / RFU, TMEM33 / Fold change vs veh, TMEM33 / RFU, WDR75 / Fold change vs veh, WDR75 / RFU, AHCTF1 / Fold change vs veh, AHCTF1 / RFU, TFRC / Fold change vs veh, TFRC / RFU, ZDHHC17 / Fold change vs veh, ZDHHC17 / RFU, NOM1 / Fold change vs veh, NOM1 / RFU, ARL8B / Fold change vs veh, ARL8B / RFU, ZBTB11 / Fold change vs veh, ZBTB11 / RFU, TAMM41 / Fold change vs veh, TAMM41 / RFU, KIAA1704 /// LOC100996395 / Fold change vs veh, KIAA1704 /// LOC100996395 / RFU, ING1 / Fold change vs veh, ING1 / RFU, TRMT61B / Fold change vs veh, TRMT61B / RFU, FUBP3 / Fold change vs veh, FUBP3 / RFU, TP53 / Fold change vs veh, TP53 / RFU, TNKS2 / Fold change vs veh, TNKS2 / RFU, ZFP14 / Fold change vs veh, ZFP14 / RFU, ACTR2 / Fold change vs veh, ACTR2 / RFU, PPP3R1 / Fold change vs veh, PPP3R1 / RFU, PIK3R1 / Fold change vs veh, PIK3R1 / RFU, HNRNPA1 / Fold change vs veh, HNRNPA1 / RFU, RNF170 / Fold change vs veh, RNF170 / RFU, ZNF28 / Fold change vs veh, ZNF28 / RFU, RNGTT / Fold change vs veh, RNGTT / RFU, OGT / Fold change vs veh, OGT / RFU, BRD1 / Fold change vs veh, BRD1 / RFU, MARS / Fold change vs veh, MARS / RFU, ZNF655 / Fold change vs veh, ZNF655 / RFU, FAHD1 / Fold change vs veh, FAHD1 / RFU, BDP1 / Fold change vs veh, BDP1 / RFU, LRRCC1 / Fold change vs veh, LRRCC1 / RFU, ARID1A / Fold change vs veh, ARID1A / RFU, ZNF146 / Fold change vs veh, ZNF146 / RFU, ZNF330 / Fold change vs veh, ZNF330 / RFU, GPN3 / Fold change vs veh, GPN3 / RFU, C9orf123 / Fold change vs veh, C9orf123 / RFU, N4BP2L2 / Fold change vs veh, N4BP2L2 / RFU, ARFIP1 / Fold change vs veh, ARFIP1 / RFU, FAM179B / Fold change vs veh, FAM179B / RFU, BCL10 / Fold change vs veh, BCL10 / RFU, UHRF1BP1L / Fold change vs veh, UHRF1BP1L / RFU, BET1 / Fold change vs veh, BET1 / RFU, CNOT2 / Fold change vs veh, CNOT2 / RFU, ZNF268 / Fold change vs veh, ZNF268 / Fold change vs veh, ZNF507 / RFU, DGCR2 / Fold change vs veh, DGCR2 / RFU, WDSUB1 / Fold change vs veh, WDSUB1 / Fold change vs veh, HSP90B1 /// MIR3652 / RFU, ADSS / Fold change vs veh, ADSS / RFU, GK / Fold change vs veh, GK / RFU, ZNF148 / Fold change vs veh, ZNF148 / RFU, TAF9 / Fold change vs veh, TAF9 / RFU, SLC1A5 / Fold change vs veh, SLC1A5 / RFU, SLMO2 / Fold change vs veh, SLMO2 / RFU, ABCC4 / Fold change vs veh, ABCC4 / RFU, LOC101060439 /// RAP1B / Fold change vs veh, LOC101060439 /// RAP1B / RFU, RFX7 / Fold change vs veh, RFX7 / RFU, GTPBP10 / Fold change vs veh, GTPBP10 / RFU, CNEP1R1 / Fold change vs veh, CNEP1R1 / RFU, BIVM-ERCC5 /// ERCC5 / Fold change vs veh, BIVM-ERCC5 /// ERCC5 / RFU, ILF3 / Fold change vs veh, ILF3 / RFU 11762660_at / Fold change /veh 11762660_at / RFU VCAN (11757783_s_at) / Fold change /veh VCAN (11757783_s_at) / RFU DDX43 (11728927_at) / Fold change /veh DDX43 (11728927_at) / RFU KRT8 (11758188_x_at) / Fold change /veh KRT8 (11758188_x_at) / RFU NKD1 (11759106_at) / Fold change /veh NKD1 (11759106_at) / RFU SRD5A1 (11742802_a_at) / Fold change /veh SRD5A1 (11742802_a_at) / RFU TPSAB1 /// TPSB2 (11721975_s_at) / Fold change /veh TPSAB1 /// TPSB2 (11721975_s_at) / RFU GSTM3 (11746129_a_at) / Fold change /veh GSTM3 (11746129_a_at) / RFU IL23R (11737362_x_at) / Fold change /veh IL23R (11737362_x_at) / RFU TMEM51 (11727254_a_at) / Fold change /veh TMEM51 (11727254_a_at) / RFU PIWIL2 (11732686_x_at) / Fold change /veh PIWIL2 (11732686_x_at) / RFU ORM1 (11744905_x_at) / Fold change /veh ORM1 (11744905_x_at) / RFU CCDC152 (11743942_at) / Fold change /veh CCDC152 (11743942_at) / RFU ECM1 (11717891_a_at) / Fold change /veh ECM1 (11717891_a_at) / RFU IL23R (11748794_a_at) / Fold change /veh IL23R (11748794_a_at) / RFU TNFAIP8L3 (11732012_x_at) / Fold change /veh TNFAIP8L3 (11732012_x_at) / RFU MBOAT4 (11741988_at) / Fold change /veh MBOAT4 (11741988_at) / RFU 11764193_at / Fold change /veh 11764193_at / RFU TMEM53 (11763286_at) / Fold change /veh TMEM53 (11763286_at) / RFU MAGEB2 (11727129_at) / Fold change /veh MAGEB2 (11727129_at) / RFU TMEM200A (11744735_a_at) / Fold change /veh TMEM200A (11744735_a_at) / RFU CCDC152 (11751479_a_at) / Fold change /veh CCDC152 (11751479_a_at) / RFU FAM211A (11726209_a_at) / Fold change /veh FAM211A (11726209_a_at) / RFU RGS16 (11746705_a_at) / Fold change /veh RGS16 (11746705_a_at) / RFU VCAN (11755009_s_at) / Fold change /veh VCAN (11755009_s_at) / RFU RHOB (11743442_s_at) / Fold change /veh RHOB (11743442_s_at) / RFU RGS16 (11720943_a_at) / Fold change /veh RGS16 (11720943_a_at) / RFU RGS16 (11720944_at) / Fold change /veh RGS16 (11720944_at) / RFU, VPS4B / Fold change vs veh, VPS4B / RFU, CREB1 / Fold change vs veh, CREB1 / RFU, DNAJC13 / Fold change vs veh, DNAJC13 / RFU, GNAQ / Fold change vs veh, GNAQ / RFU, CDK5R1 / Fold change vs veh, CDK5R1 / RFU, ZRANB3 / Fold change vs veh, ZRANB3 / RFU, CUL4A / Fold change vs veh, CUL4A / RFU, CCNY / Fold change vs veh, CCNY / RFU, UFL1 / Fold change vs veh, UFL1 / RFU, COG3 / Fold change vs veh, COG3 / RFU, DIAPH2 / Fold change vs veh, DIAPH2 / RFU, SKA2 / Fold change vs veh, SKA2 / RFU, AFF3 / Fold change vs veh, AFF3 / RFU, LMF1 / Fold change vs veh, LMF1 / RFU, IPO11 / Fold change vs veh, IPO11 / RFU, DFFB / Fold change vs veh, DFFB / RFU, FOXP1 / Fold change vs veh, FOXP1 / RFU, CARD8 / Fold change vs veh, CARD8 / RFU, STRN3 / Fold change vs veh, STRN3 / RFU, ADK / Fold change vs veh, ADK / RFU, RASSF2 / Fold change vs veh, RASSF2 / RFU, WIPF1 / Fold change vs veh, WIPF1 / RFU, LARP1B / Fold change vs veh, LARP1B / RFU, RASA1 / Fold change vs veh, RASA1 / RFU, RB1 / Fold change vs veh, RB1 / RFU, PPFIA1 / Fold change vs veh, PPFIA1 / RFU, MAT2A / Fold change vs veh, MAT2A / RFU, CCT5 / Fold change vs veh, CCT5 / RFU, WDR92 / Fold change vs veh, WDR92 / RFU, CUX1 / Fold change vs veh, CUX1 / RFU, TTC7A / Fold change vs veh, TTC7A / RFU, TMEM135 / Fold change vs veh, TMEM135 / RFU, DEPTOR / Fold change vs veh, DEPTOR / RFU, CPM / Fold change vs veh, CPM / RFU, DNAJB6 / Fold change vs veh, DNAJB6 / RFU, CACNA2D3 / Fold change vs veh, CACNA2D3 / RFU, DTX4 / Fold change vs veh, DTX4 / RFU, TFCP2 / Fold change vs veh, TFCP2 / RFU, GMCL1 /// GMCL1P1 / Fold change vs veh, GMCL1 /// GMCL1P1 / RFU, AEBP2 / Fold change vs veh, AEBP2 / RFU, SNHG1 /// SNORD22 /// SNORD25 /// SNORD26 /// SNORD27 /// SNORD28 /// SNORD29 /// SNORD31 / Fold change vs veh, SNHG1 /// SNORD22 /// SNORD25 /// SNORD26 /// SNORD27 /// SNORD28 /// SNORD29 /// SNORD31 / Fold change (Aza/veh), C12orf56 (ProbeSet 11735607_a_at) / Fold change (ACY-1035/veh), C12orf56 (ProbeSet 11735607_a_at) / Fold change (Aza/veh), FGFR1OP (ProbeSet 11751329_s_at) / Fold change (ACY-1035/veh), FGFR1OP (ProbeSet 11751329_s_at) / Fold change (Aza/veh), VPS36 (ProbeSet 11739960_a_at) / Fold change (ACY-1035/veh), VPS36 (ProbeSet 11739960_a_at) / RFU SYPL1 (11715823_x_at) / Fold change /veh SYPL1 (11715823_x_at) / RFU IGFBP7 (11715501_s_at) / Fold change /veh IGFBP7 (11715501_s_at) / RFU REEP3 (11722064_at) / Fold change /veh REEP3 (11722064_at) / RFU IGLL1 (11728026_x_at) / Fold change /veh IGLL1 (11728026_x_at): dose or concentration left out as unconfirmed
Details: ProbeSet 11718569_a_at; LIST D

`Nc1ccc(-c2cccs2)cc1NC(=O)c1ccc2c(c1)cc(C1CC1)n2CCN1CCOCC1` [ACY-1035] was tested, and the “RFU, WIPF1” value was 108.27 RFU.
